Results published in patent US9120820B2, “Fluorescent molecular probes for use in assays that measure test compound competitive binding with SAM-utilizing proteins” (CAYMAN CHEMICAL COMPANY, INCORPORATED, priority 2011, dated 2015).

What was measured:
Trypsin = test: Fluorescence polarization saturation binding of fluorescent probe to Trypsin (control protein); conditions: saturation-binding format, read-out: Sinefungin Probe 1A Affinity
Experimental: (§1) Sinefungin Probe 1A was tested for the ability to bind to 16 proteins, including several non-methlytransferase protein controls (Table 2). This probe binds to 4 methyltransferases (SET7/9, G9a, GLP, MLL) with Kd values <2 μM.

ASH2L = ASH2L (Homo sapiens, UniProt Q9UBL3); test: Fluorescence polarization saturation binding of fluorescent probe to ASH2L; conditions: saturation-binding format, read-out: Sinefungin Probe 1A Affinity
Chain of ASH2L (Q9UBL3 whole entry, species assumed): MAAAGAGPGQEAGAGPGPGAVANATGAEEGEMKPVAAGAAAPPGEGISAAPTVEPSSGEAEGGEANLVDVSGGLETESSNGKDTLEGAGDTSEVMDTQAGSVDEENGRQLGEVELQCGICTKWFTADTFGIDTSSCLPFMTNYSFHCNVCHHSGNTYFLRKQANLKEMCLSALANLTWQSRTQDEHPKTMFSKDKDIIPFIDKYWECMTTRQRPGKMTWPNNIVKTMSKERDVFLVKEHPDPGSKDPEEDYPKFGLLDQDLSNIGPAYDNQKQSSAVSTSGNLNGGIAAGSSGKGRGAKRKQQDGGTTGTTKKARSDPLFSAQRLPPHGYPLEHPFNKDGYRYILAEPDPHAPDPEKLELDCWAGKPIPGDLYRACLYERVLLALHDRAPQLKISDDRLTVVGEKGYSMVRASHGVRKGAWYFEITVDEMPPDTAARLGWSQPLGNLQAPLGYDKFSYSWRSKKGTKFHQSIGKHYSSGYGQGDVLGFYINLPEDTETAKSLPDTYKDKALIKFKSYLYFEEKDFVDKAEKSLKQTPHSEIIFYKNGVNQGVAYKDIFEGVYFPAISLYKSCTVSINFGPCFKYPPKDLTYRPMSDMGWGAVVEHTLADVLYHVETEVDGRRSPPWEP
Experimental: as §1

## Nc1ncnc2c1ncn2[C@@H]1O[C@H](C[C@@H](N)CC[C@H](N)C(=O)O)[C@@H](OCc2cnnn2CCCCCCNC(=O)OC2CCN(C(=O)c3ccccc3C3=c4cc5c6c(c4Oc4c3cc3c7c4CCCN7CCC3)CCC[N+]=6CCC5)CC2)[C@H]1O [Sinefungin Probe 1A]
Trypsin
  Kd: > 10 µM
ASH2L
  Kd: > 10 µM
